Experimental data as given in patent US9909107B2, “Brassica AHAS genes and gene alleles that provide resistance to imidazolinone herbicides” (priority 2004, dated 2018).
Where “and” joins values, the source holds several entries; their conditions need not be identical. Equal values may be shown once.

What was measured:
[1] = test system: AHAS enzyme in leaf discs of J04E-0044 (BjAHAS-bR mutant allele); assay: AHAS activity assay of leaf discs, line J04E-0044; type: biochemical, Brassica juncea; settings: for tolerance provided by the mutation (in words): mutation in B. juncea variety J04E-0044
Protocol: (§1) Leaf discs were removed from seedling leaves of J04E-0044 and subjected to an assay of AHAS activity, as described by Singh et al. (Anal. Biochem. 171: 173-179, 1988). The assay measures AHAS activity by estimating the amount of product, acetolactate, after conversion by decarboxylation in the presence of acid to acetoin. The assay compares the AHAS activity in two leaf discs. The control leaf disc was incubated in 10 mM phosphate buffer (pH 6.0) containing 50 mM pyruvate, 500 uM cyclopropane dicarboxylic acid (CPCA), 10% M&S salts and 0.5% alanine. The other leaf disc was in the same buffer in the presence of 2.5 uM imazamox, an imidazolinone herbicide. The herbicide normally binds to the AHAS enzyme and inhibits activity. The incubations were carried out at 22° C. for 16 hrs followed by measuring the absorbance at A530 nm. A completely herbicide susceptible plant will have an AHAS activity level near zero when exposed to an inhibitory herbicide, while a tolerant plant will have AHAS activity nearly equal to that of the control. A plant with a mutated AHAS gene in one genome but not the other will have intermediate AHAS activity in the present of enzyme inhibitor. The procedure was modified to include the addition of cydopropane dicarboxylic acid (CPCA), which prevents the further conversion of acetolactate to valine and leucine. In addition to an imidazolinone herbicide as an inhibitor, a sulfonylurea herbicide (chlorsulfuron) was also used on separate leaf discs to test for cross-tolerance in the same way except that 0.2 uM chlorsulfuron was used instead of 2.5 uM imazamox. In this table, the line PM1 is a B. napus variety with a mutation affecting the AHAS1 gene in the C genome only and PM2 is a B. napus variety with a mutation in the AHAS3 gene, located in the A genome. Susceptible check is a commercial B. juncea variety.

[2] = test system: AHAS enzyme in leaf discs of Susceptible check (B. juncea variety 'Arid'); assay: AHAS activity assay of leaf discs, susceptible check; type: biochemical, Brassica juncea
Protocol: as §1

[3] = biological target: T1, AHAS enzyme in leaf discs of PM1 (mutation affecting the AHAS1 gene in the C genome) (Brassica napus, UniProt P27818, S638N); assay: AHAS activity assay of leaf discs, line PM1; type: biochemical; settings: for tolerance provided by the mutation (in words): PM1 mutation
T1 construct: Relative AHAS activity of leaf discs exposed; from tissue; host or cells: leaf discs of B. napus line PM1
T1 sequence (P27818 83-655 S638N): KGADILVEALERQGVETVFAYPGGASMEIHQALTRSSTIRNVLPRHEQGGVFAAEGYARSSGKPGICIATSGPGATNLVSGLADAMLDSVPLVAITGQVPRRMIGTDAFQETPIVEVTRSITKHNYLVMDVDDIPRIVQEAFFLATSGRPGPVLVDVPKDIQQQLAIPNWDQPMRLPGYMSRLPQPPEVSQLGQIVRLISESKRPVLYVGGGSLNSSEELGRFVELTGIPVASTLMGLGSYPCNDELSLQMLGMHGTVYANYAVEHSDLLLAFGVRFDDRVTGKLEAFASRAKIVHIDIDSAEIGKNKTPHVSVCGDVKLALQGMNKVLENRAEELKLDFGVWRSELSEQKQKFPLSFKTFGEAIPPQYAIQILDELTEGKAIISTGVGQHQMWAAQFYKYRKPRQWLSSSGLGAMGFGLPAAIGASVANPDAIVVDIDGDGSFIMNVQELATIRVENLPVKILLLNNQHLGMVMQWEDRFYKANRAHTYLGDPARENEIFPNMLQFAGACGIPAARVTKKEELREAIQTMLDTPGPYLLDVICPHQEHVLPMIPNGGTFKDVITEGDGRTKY
Protocol: as §1

[4] = biological target: T2, AHAS enzyme in leaf discs of PM2 (mutation in the AHAS3 gene, A genome) (Brassica napus, UniProt P27819, W556L); assay: AHAS activity assay of leaf discs, line PM2; type: biochemical; settings: for tolerance provided by the mutation (in words): PM2 mutation in the A genome
T2 construct: Relative AHAS activity of leaf discs exposed; from tissue; host or cells: leaf discs of B. napus line PM2
T2 sequence (P27819 70-652 W556L): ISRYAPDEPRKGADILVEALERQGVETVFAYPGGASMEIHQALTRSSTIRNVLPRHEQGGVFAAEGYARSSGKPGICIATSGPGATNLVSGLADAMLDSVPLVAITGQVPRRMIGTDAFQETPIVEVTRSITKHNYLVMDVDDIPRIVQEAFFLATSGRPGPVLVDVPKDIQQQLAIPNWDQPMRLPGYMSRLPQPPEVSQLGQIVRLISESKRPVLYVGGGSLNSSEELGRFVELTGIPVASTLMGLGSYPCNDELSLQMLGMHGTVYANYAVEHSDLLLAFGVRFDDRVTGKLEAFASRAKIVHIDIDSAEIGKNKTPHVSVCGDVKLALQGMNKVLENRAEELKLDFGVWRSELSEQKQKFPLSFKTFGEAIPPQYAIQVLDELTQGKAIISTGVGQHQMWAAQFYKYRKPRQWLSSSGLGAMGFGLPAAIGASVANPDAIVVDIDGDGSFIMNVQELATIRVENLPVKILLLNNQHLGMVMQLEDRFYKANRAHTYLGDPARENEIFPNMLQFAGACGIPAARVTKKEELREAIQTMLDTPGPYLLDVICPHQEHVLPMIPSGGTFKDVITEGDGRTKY
Protocol: as §1

Structure (SMILES)	tolerance provided by the mutation (in words) [1]	Relative AHAS activity with chlorsulfuron (0-1) ([2]; Susceptible check leaf disc, 0.2 uM chlorsulfuron vs control disc, 22° C., 16 hrs, scale 0-1)	tolerance provided by the mutation (in words) [3]	tolerance provided by the mutation (in words) [4]	relative AHAS activity ([1]; J04E-0044, imidazolinone as AHAS activity inhibitor (Table 1))	Relative AHAS activity with imidazolinone (0-1) ([1]; J04E-0044 leaf disc, 2.5 uM imazamox vs control disc, 22° C., 16 hrs, scale 0-1, assays #1-3)	AHAS activity in the presence of an imidazolinone herbicide relative to without the inhibitor ([2]; Arid (susceptible check))	Relative AHAS activity with imidazolinone (0-1) ([2]; Susceptible check leaf disc, 2.5 uM imazamox vs control disc, 22° C., 16 hrs, scale 0-1)	Relative AHAS activity with imidazolinone (0-1) ([3]; PM1 leaf disc, 2.5 uM imazamox vs control disc, 22° C., 16 hrs, scale 0-1, assays #1-3)	Relative AHAS activity with imidazolinone (0-1) ([4]; PM2 leaf disc, 2.5 uM imazamox vs control disc, 22° C., 16 hrs, scale 0-1, assays #1-2)
COc1nc(C)nc(NC(=O)NS(=O)(=O)c2ccccc2Cl)n1 [chlorsulfuron]	little tolerance	0.029	no tolerance	tolerance						
COCc1cnc(C2=NC(C)(C(C)C)C(=O)N2)c(C(=O)O)c1 (stereo not shown) [imidazolinone, imazamox]	tolerance equal to that of PM2		less tolerance	tolerance	70% and 79% and 91%	0.703 and 0.793 and 0.919	less than 2%	0.018	0.256 and 0.292 and 0.276	0.607 and 0.722
